Measured values as given in the Kinase Knowledgebase extract (Sharma et al. 2016).

How the values were obtained:
PIK3CA (human) = PIK3CA (human) (UniProt P42336); experiment: Inhibition of PIK3CA Kinase Activity
PIK3CG (human) = PIK3CG (human) (UniProt P48736); experiment: Enzyme Assay
PIK3CD (Human) = PIK3CD (Human) (UniProt O00329); experiment: Enzyme Assay
PIK3CB (Human) = PIK3CB (Human) (UniProt P42338); experiment: Inhibition of PIK3CB Kinase Activity
PIK3CB (Human), sequence (P42338 whole entry, looked up): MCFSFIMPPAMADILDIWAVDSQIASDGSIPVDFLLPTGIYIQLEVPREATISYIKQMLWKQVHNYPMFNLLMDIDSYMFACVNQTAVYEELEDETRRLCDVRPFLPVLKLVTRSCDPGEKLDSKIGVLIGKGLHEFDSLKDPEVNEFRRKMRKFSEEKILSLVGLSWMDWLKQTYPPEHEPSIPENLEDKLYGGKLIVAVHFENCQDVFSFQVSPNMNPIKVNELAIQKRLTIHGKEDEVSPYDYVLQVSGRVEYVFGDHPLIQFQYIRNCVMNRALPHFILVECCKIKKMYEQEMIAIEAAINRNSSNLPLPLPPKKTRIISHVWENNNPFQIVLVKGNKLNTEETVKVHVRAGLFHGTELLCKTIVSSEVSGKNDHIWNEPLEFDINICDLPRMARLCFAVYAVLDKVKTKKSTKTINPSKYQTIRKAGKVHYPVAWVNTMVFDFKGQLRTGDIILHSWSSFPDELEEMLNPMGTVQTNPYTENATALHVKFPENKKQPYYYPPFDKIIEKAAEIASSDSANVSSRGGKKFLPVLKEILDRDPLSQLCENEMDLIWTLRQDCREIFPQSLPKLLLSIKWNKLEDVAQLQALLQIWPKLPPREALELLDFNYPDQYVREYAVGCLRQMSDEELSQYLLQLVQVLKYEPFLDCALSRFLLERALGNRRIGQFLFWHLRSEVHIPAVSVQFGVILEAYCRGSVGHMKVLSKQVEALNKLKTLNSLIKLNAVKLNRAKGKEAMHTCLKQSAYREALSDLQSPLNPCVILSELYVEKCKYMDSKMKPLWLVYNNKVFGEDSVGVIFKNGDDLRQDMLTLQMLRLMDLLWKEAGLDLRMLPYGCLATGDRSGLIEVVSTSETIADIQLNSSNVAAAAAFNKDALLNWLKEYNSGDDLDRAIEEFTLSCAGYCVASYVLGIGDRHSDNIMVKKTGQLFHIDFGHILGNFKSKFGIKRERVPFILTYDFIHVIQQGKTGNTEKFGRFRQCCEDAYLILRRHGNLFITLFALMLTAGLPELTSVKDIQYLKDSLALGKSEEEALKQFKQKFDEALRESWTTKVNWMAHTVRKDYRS

PIK3CA (human), sequence (P42336 whole entry, looked up): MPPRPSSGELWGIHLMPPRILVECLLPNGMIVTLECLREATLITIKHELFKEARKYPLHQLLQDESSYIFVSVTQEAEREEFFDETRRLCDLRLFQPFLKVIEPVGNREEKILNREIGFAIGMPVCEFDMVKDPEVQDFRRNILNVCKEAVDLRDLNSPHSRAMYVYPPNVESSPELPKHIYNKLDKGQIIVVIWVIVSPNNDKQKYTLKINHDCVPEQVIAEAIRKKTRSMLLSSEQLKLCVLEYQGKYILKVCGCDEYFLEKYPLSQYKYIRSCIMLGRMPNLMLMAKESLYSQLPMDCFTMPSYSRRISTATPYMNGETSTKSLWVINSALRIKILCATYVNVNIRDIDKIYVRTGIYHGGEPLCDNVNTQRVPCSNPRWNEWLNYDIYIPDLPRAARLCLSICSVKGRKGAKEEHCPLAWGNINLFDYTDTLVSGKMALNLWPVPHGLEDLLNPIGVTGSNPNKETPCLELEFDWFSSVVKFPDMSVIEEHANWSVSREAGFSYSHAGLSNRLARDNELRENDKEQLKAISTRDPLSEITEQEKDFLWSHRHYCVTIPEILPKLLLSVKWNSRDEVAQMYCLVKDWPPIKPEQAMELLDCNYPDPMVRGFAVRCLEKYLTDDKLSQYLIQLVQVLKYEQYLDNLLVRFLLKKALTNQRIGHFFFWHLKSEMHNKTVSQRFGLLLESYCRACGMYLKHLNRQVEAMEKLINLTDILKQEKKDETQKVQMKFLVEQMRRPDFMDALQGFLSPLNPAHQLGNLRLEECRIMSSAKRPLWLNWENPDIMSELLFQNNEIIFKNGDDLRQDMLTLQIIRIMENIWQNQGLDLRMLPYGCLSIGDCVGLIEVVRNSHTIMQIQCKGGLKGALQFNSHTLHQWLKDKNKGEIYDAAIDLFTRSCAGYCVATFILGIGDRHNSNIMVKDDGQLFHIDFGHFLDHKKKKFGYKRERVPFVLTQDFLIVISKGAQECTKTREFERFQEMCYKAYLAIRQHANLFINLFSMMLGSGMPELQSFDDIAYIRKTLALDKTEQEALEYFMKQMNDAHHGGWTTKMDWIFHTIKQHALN
PIK3CD (Human), sequence (O00329 whole entry, looked up): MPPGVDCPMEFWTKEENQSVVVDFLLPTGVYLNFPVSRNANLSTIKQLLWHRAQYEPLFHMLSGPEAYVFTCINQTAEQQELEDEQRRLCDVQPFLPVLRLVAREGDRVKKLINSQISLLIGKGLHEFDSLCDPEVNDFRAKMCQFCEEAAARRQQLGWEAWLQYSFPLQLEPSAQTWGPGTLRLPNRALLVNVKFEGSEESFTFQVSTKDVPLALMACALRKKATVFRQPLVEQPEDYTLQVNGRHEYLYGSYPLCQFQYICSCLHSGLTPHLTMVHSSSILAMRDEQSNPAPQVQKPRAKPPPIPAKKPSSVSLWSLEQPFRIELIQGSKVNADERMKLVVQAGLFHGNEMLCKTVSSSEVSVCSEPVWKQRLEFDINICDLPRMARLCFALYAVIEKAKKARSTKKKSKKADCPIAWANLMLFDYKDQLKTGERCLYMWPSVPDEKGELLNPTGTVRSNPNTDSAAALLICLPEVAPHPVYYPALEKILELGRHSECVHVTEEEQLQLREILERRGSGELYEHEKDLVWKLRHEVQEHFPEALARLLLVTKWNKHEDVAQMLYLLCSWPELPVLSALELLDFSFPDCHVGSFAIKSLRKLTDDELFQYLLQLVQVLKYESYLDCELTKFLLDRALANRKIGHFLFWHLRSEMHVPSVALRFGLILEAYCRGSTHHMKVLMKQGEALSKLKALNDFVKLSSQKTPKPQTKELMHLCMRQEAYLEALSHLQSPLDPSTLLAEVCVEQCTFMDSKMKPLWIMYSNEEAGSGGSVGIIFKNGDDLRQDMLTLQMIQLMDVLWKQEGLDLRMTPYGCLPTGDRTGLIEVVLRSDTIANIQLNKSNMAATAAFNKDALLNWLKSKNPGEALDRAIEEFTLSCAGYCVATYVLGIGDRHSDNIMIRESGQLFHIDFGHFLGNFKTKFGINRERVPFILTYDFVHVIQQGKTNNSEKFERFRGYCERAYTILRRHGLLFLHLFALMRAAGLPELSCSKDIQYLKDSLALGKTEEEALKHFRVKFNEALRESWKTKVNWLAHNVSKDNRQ
PIK3CG (human), sequence (P48736 whole entry, looked up): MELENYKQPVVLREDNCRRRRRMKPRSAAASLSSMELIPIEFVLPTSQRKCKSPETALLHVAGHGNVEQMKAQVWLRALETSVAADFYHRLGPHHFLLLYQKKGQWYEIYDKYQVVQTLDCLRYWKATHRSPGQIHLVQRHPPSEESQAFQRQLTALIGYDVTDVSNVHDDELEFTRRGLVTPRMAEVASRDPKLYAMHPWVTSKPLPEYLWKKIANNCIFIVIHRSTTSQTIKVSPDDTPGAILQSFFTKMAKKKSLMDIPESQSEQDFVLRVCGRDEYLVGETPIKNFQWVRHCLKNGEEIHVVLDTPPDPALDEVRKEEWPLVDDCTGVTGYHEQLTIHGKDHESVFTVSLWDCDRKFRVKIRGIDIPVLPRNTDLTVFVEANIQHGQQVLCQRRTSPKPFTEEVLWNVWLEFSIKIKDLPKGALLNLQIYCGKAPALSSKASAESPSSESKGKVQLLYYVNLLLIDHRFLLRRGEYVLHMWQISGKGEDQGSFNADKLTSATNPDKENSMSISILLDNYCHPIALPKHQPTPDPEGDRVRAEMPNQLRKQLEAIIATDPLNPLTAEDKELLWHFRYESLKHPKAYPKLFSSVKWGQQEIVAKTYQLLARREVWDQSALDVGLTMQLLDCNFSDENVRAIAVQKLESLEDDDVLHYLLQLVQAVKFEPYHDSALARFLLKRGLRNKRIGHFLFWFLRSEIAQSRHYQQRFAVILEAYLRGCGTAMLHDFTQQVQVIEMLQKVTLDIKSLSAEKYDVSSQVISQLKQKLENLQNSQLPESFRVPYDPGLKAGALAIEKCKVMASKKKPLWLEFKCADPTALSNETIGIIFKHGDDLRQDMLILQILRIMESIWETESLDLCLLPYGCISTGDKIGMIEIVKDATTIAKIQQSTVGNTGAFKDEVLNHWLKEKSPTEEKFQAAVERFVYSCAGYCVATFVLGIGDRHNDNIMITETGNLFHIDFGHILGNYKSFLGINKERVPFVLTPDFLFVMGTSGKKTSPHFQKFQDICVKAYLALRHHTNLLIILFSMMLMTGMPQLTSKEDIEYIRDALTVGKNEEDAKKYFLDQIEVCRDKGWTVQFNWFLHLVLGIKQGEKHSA

Structure (SMILES) | IC50 (PIK3CA (human)) | IC50 (PIK3CG (human)) | IC50 (PIK3CD (Human)) | IC50 (PIK3CB (Human))
CCn1nc(-c2ccc3nc(NC(C)=O)sc3c2)c2c(N)ncnc21 | 50 to 100 nM | ≤ 50 nM | ≤ 50 nM | 
CC(=O)Nc1nc2ccc(-c3nn(C4CCOCC4)c4ncnc(N)c34)cc2s1 | 100 to 500 nM | ≤ 50 nM | ≤ 50 nM | 
CC(C)n1nc(-c2ccc3nc(N)sc3c2)c2c(N)ncnc21 | 100 to 500 nM | ≤ 50 nM | 50 to 100 nM | 
CNC(=O)Nc1nc2ccc(-c3cn(C4CCOCC4)c4ncnc(N)c34)cc2s1 | ≤ 50 nM | ≤ 50 nM | ≤ 50 nM | ≤ 50 nM
CCNc1nc2ccc(-c3nn(C(C)C)c4ncnc(N)c34)cc2s1 | 100 to 500 nM | 100 to 500 nM | 500 to 1000 nM | 
CC(C)n1nc(-c2cc3ccc(O)cc3[nH]2)c2c(N)ncnc21 | 100 to 500 nM | 100 to 500 nM | 100 to 500 nM | 
CC(C)n1nc(-c2cc3cc(O)cc(F)c3[nH]2)c2c(N)ncnc21 |  | 100 to 500 nM | 50 to 100 nM | 
CC(C)n1nc(-c2cc3cccc(O)c3[nH]2)c2c(N)ncnc21 |  | 100 to 500 nM | 100 to 500 nM | 
CNC(=O)Nc1nc2ccc(-c3cn(C4CCN(C(C)=O)CC4)c4ncnc(N)c34)cc2s1 | ≤ 50 nM | ≤ 50 nM | ≤ 50 nM | 50 to 100 nM
CC(C)n1nc(-c2cc3cc(O)cc(Cl)c3[nH]2)c2c(N)ncnc21 |  | 25 to 50 nM | 25 to 50 nM | 
CC(=O)Nc1nc2ccc(-c3nn(C)c4ncnc(N)c34)cc2s1 | 500 to 1000 nM |  |  | 
CC(=O)Nc1nc2ccc(-c3nn(C4CCCC4)c4ncnc(N)c34)cc2s1 | ≤ 50 nM | ≤ 50 nM | ≤ 50 nM | 
CNC(=O)Nc1nc2ccc(-c3nn(C(C)C)c4ncnc(N)c34)cc2s1 | ≤ 50 nM | ≤ 50 nM | ≤ 50 nM | 
CC(=O)Nc1nc2ccc(-c3nn(C(C)C)c4ncnc(N)c34)cc2s1 | 100 to 500 nM | ≤ 50 nM | ≤ 50 nM | 
CC(C)n1nc(-c2ccc3nc(NC(=O)C4CC4)sc3c2)c2c(N)ncnc21 | 500 to 1000 nM |  |  | 
CNC(=O)Nc1nc2ccc(-c3cn(C(C)C)c4ncnc(N)c34)cc2s1 | ≤ 50 nM | ≤ 50 nM | ≤ 50 nM | ≤ 50 nM
CC(C)n1nc(-c2ccc3nc(NCCO)sc3c2)c2c(N)ncnc21 | 500 to 1000 nM |  |  | 
CC(=O)Nc1nc2ccc(-c3nn(C4CCC4)c4ncnc(N)c34)cc2s1 | 50 to 100 nM | ≤ 50 nM | 50 to 100 nM | 
CNc1nc2ccc(-c3nn(C(C)C)c4ncnc(N)c34)cc2s1 | 50 to 100 nM | ≤ 50 nM | 100 to 500 nM | 
CCC(=O)Nc1nc2ccc(-c3nn(C(C)C)c4ncnc(N)c34)cc2s1 | 100 to 500 nM |  |  | 
